Results taken from US4567192A, “Acylaminophenol derivatives” (Sandoz Ltd., priority 1983, dated 1986).

How the values were obtained:
[1] = Test I: arthritis pain test (method of A. W. Pircio et al.); type: in vivo; conditions: po
Excerpt: (I) The arthritis pain test (based on the method of A. W. Pircio et al., Eur. J. Pharmacol. 31, 207-215, 1975); and
(§1) As previously indicated, required daily dosages will depend inter al. on the particular compound of the invention employed. Results obtained for the compounds (L)-(4-acetamido-phenyl)-2-oxo-thiazolidine-4-carboxylate (compound A) in accordance with the present invention and the known analgesic paracetamol (compound B) in tests I and II above are shown in the following table.

inflamed rat hind-paw = test: Test II: Randall-Selitto Test on the inflamed rat hind-paw; type: in vivo; conditions: po
Excerpt: (II) The Randall-Selitto Test on the inflamed rat hind-paw (Arch. Int. Pharmacodyn. 61, 409-419, 1957).
as §1

[2] = test system: GOT (Glutamate-Oxalacetate-Transaminase); test: Hepatoxicity: GOT (Glutamate-Oxalacetate-Transaminase) level in mouse serum; type: in vivo
Procedure: (§2) Thus on administration of 1'000 mg/kg p.o. of COMPOUND A in accordance with the invention to mice, no increase in GOT and GPT levels over levels in untreated controls (40 to 80 units/liter) is observed and no deaths are recorded. In contrast on administration of compound B (paracetamol) at a dosage of 560 mg/kg p.o., GOT levels are elevated to 3'800 units/liter and GPT levels are elevated to 3'000 units and on administration of compound B at a dosage of 1'000 mg/kg p.o., death of 2 out of 5 test animals is recorded.

[3] = test system: GPT (Glutamate-Pyruvate-Transaminase); test: Hepatoxicity: GPT (Glutamate-Pyruvate-Transaminase) level in mouse serum; type: in vivo
Procedure: as §2

[4] = Deaths after oral administration to mice; type: in vivo, mouse; conditions: 1'000 mg/kg p.o.
[5] = high dosages, cited from earlier work
[6] = mice, 1'000 mg/kg p.o., untreated controls 40 to 80 units/liter

SMILES | ED50 ([1]; 1 hr.) | ED50 ([1]; 3 hrs.) | ED50 ([1]; 5 hrs.) | ED50 (inflamed rat hind-paw) | GOT levels ([2]; mouse, in vivo, po, 560 mg/kg) | GPT levels ([3]; mouse, in vivo, po, 560 mg/kg) | death of test animals [4] | death ([5]; following liver damage) | damage of the liver [5] | increase in GOT levels over levels in untreated controls [2, 6] | increase in GPT levels over levels in untreated controls [3, 6] | deaths [4]
CC(=O)Nc1ccc(O)cc1 [COMPOUND B, N-(4-hydroxyphenyl)acetamide] | 75 mg/kg | 142 mg/kg | 261 mg/kg | 203 mg/kg | 3'800 units/liter | 3'000 units | 2 out of 5 | may lead to death | extensive damage of the liver | – | – | –
CC(=O)Nc1ccc(OC(=O)[C@@H]2CSC(=O)N2)cc1 [COMPOUND A, (L)-(4-acetamido-phenyl)-2-oxo-thiazolidine-4-carboxylate] | ~162 mg/kg | 162 mg/kg | 264 mg/kg | 310 mg/kg | – | – | – | – | – | no increase | no increase | no deaths
